Experimental data from PMC3022373 (Journal of medicinal chemistry, 2010).

Target: T1, hiCE (Homo sapiens, UniProt O00748)
T1 sequence (O00748 27-559): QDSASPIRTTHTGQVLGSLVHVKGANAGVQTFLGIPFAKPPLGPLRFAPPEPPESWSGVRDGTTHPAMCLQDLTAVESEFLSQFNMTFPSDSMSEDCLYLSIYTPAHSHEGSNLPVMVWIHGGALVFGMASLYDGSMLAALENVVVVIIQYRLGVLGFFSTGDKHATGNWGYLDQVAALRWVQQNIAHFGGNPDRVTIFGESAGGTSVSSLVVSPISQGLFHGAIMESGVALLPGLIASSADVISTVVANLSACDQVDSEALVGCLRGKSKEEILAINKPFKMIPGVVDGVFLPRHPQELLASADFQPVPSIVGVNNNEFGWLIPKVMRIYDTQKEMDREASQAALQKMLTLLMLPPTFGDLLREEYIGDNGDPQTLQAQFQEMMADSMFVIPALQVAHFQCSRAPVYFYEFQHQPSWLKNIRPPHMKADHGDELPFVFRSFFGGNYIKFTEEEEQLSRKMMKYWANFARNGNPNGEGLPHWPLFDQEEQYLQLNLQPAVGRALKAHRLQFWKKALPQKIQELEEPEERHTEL
Assay type: biochemical

| Structure (SMILES) | selectivity in favor of hiCE inhibition versus hCE1 |
| --- | --- |
| O=C(C(=O)c1ccccn1)c1cccc(NC(=O)c2ccc(Cl)cc2Cl)c1 [15d] | ≥ 100 fold |
| O=C(Nc1cccc(C(=O)C(=O)c2ccccn2)c1)c1ccc(C(F)(F)F)cc1 [15f] | ≥ 100 fold |
